Measured values published in patent US6841565B1, “Treatment of patients with chronic lymphocytic leukemia” (The Ohio State University, priority 2002, dated 2005).
Where two headings read alike, the source gives them in different places.

How the values were obtained:
[1] = test system: cellular histone deacetylase activity; conditions: A. Saito, et al., 1999; cited from earlier work
[2] = test system: B-CLL cells; assay: cells; assay type: cell-based; conditions: Homo sapiens, read-out: LC50
Procedure: FIG. 1. LC50 determination of MS-275 in primary B-CLL cells. Peripheral blood mononuclear cells (PBMCs) from thirteen individual B-CLL patients were isolated and incubated with varying concentrations of MS-275 from 0.01 to 100 uM. A. Cells were incubated in drug for 4 hours and were then washed and re-incubated in fresh media for a total of 96 hours. B. Cells were incubated in drug for 96 hours continuously. Viability was determined by an MTT assay to detect metabolic activity. Each patient sample at each concentration was run in quadruplicate and was normalized to cells from the same patient incubated for the same time period in media alone. Error bars represent 95% confidence intervals. […]
In order to accurately represent the in vivo situation where drug is eliminated from the bloodstream, 1×10^6 PBMCs from B-CLL patients or healthy volunteers, isolated as described in Example 1, were incubated in various concentrations of MS-275 in RPMI 1640 with 10% heat-inactivated fetal bovine serum for 4, 24 or 96 hours at 37° C. in 96-well plates. […] Viability of the cells was then analyzed using the MTT assay. […] To use the MTT assay, MTT reagent was added and the cells were incubated for an additional 24 hours before washing and analysis of purple formazan formation by spectrophotometry in a Labsystems 96-well plate reader. […]

[3] = test system: 1D10 antigen; assay: 1D10 antigen levels on B-CLL cells by immunofluorescence flow cytometry; assay type: cell-based, human; conditions: 3.0 μM MS-275, 24 hours
Procedure: Washed B-CLL cells, isolated as described in Example 1, from four different patients with B-CLL, were incubated at a concentration of 10^7 cells per ml in the presence or absence of 3.0 μM MS-275 for 24 hours, before being immunofluorescently stained with either non-specific antibody (unable to specifically bind to the cells) or antibody immunospecific for 1D10 antigen. All cells were also stained with an antibody immunospecific for CD19 (recognizing B cells). The cells were analyzed by flow cytometry. The mean fluorescence intensity due to 1D10 antigen staining of CD19-positive cells was recorded.

[4] = test system: histone deacetylases; assay: Histone acetylation in B-CLL cells by immunoblotting; assay type: cell-based, human
Procedure: FIG. 2. MS-275 induced acetylation of histone proteins. PBMCs from two different B-CLL patients (Patient No. 1 and 2) were collected and incubated with 0, 0.3, or 3.0 μM MS-275 for 24 hours. Nuclear extracts were prepared from the cells and were separated by SDS-polyacrylamide gel electrophoresis before immunoblotting with antibodies immunospecific for acetylated forms of H3 or H4 histones. Coomassie blue staining was used to control for protein amount loaded onto the SDS polyacrylamide gels.
Antibodies immunospecific for specific acetylated lysine residues at the N terminus of histone H4 (i.e., K5, K8, K12 and K16) were also used. For immunoblotting, whole cell lysates were prepared from the cells using standard procedures. Protein samples were separated along with molecular weight markers (BioRad) on 10 to 14% SDS-polyacrylamide gels. Proteins in the gels were transferred using a semidry apparatus (BioRad) onto nitrocellulose membranes (Schleicher and Schuell, Keene, N.H.). Gel loading equivalence was confirmed by Ponceau S stain (Sigma) of membranes and by probing with a monoclonal antibody for GAPDH. Blots were developed with chemiluminescent substrate (Pierce Super-Signal, Pierce Biotechnology, Rockford, Ill.) and autoradiography was performed with X-OMAT film (Kodak, Rochester, N.Y.). Protein bands were digitally quantified using a ChemiDoc instrument (BioRad).

[5] = test system: human tumor cell lines; conditions: A. Saito, et al., 1999; cited from earlier work
[6] = test system: caspases 8 and 9; assay: Caspase activation, caspases 8 and 9; assay type: cell-based, human; conditions: B-CLL cells treated with MS-275, other studies
Procedure: To determine the role and identity of caspases involved in MS-275-induced apoptosis, B-CLL cells, isolated as described in Example 1, were treated with MS-275 and analyzed for caspase activation by colorimetric assay. […] Cleavage of the protein BID, a known substrate of caspase 8, was also shown.

[7] = test system: B-CLL cells; assay: Annexin V/propidium iodide flow cytometric apoptosis assay; assay type: cell-based, human
Procedure: FIG. 3. […] B-CLL patient cells were incubated with 0, 0.3, or 3.0 μM MS-275 for 24 hours. Apoptosis was assessed by annexin V/propidium iodide flow cytometry. To determine whether MS-275-treated B-CLL cells were undergoing apoptosis, an annexin V/propidium iodide flow cytometric assay was used to analyze the B-CLL cells, isolated as described in Example 1, from four different patients. Staining of cells for annexin V is an early indicator of initiation of apoptosis. Staining of cells with propidium iodide is an indicator that cells are no longer viable and, therefore, that apoptosis has actually occurred (i.e., integrity of cell membrane has been breached). To perform the assay, cells were exposed to various concentrations of MS-275 for 4 hours. Then, the cells were washed, resuspended in complete medium and incubated for 24 or 48 hours in absence of MS-275. At these times, cells were washed with PBS and resuspended in binding buffer containing annexin V-FITC and propidium iodide (BD Pharmingen, San Diego, Calif.). After 15 minutes of incubation in the dark at room temperature, apoptosis was assessed by flow cytometry on a Coulter EPICS-XL flow cytometer. […] The results were similar in the other three patients.

[8] = in vitro; assay type: cell-based; conditions: human
Text: Peripheral blood mononuclear cells (PBMCs) were obtained from the B-CLL patients and were also obtained from healthy volunteers as controls. Peripheral blood was collected from the patients or volunteers using standard techniques (see for example, S. Bennett and S. N. Breit, 1994, Variables in the isolation and culture of human monocytes that are of particular relevance to studies of HIV, J. Leukoc. Biol. 56:236-40). PMBCs were isolated from the blood using standard density gradient centrifugation using Ficoll-Paque Plus (Pharmacia Biotech, Picsataway N.J.). After isolation, the PBMCs were washed in phosphate-buffered saline (PBS).
In order to accurately represent the in vivo situation where drug is eliminated from the bloodstream, 1×10^6 PBMCs from B-CLL patients or healthy volunteers, isolated as described in Example 1, were incubated in various concentrations of MS-275 in RPMI 1640 with 10% heat-inactivated fetal bovine serum for 4, 24 or 96 hours at 37° C. in 96-well plates. […] Viability of the cells was then analyzed using the MTT assay. […] To use the MTT assay, MTT reagent was added and the cells were incubated for an additional 24 hours before washing and analysis of purple formazan formation by spectrophotometry in a Labsystems 96-well plate reader. Data were plotted and values were calculated using GraphPad software (San Diego, Calif.).

[9] = test system: caspase 3; assay: Caspase activation colorimetric assay, caspase 3; assay type: cell-based, human; conditions: B-CLL cells, 0.3 or 3.0 μM MS-275, 24 hours
Procedure: FIG. 4. […] B-CLL patient cells were incubated with 0.3 or 3.0 μM MS-275 for 24 hours. At these time points, lysates were prepared from the cells and caspase 3 activity in the lysates was measured using a colorimetric assay. To determine the role and identity of caspases involved in MS-275-induced apoptosis, B-CLL cells, isolated as described in Example 1, were treated with MS-275 and analyzed for caspase activation by colorimetric assay. […] Cleavage of the protein BID, a known substrate of caspase 8, was also shown.

[10] = Patient No. 1, CD19-positive B-CLL cells
[11] = Patient No. 2, CD19-positive B-CLL cells
[12] = Patient No. 3, CD19-positive B-CLL cells
[13] = Patient No. 4, CD19-positive B-CLL cells
[14] = Patient No. 1, 0.3 μM MS-275, 24 hours
[15] = Patient No. 1, 3.0 μM MS-275, 24 hours
[16] = Patient No. 2, 0.3 μM MS-275, 24 hours
[17] = Patient No. 2, 3.0 μM MS-275, 24 hours

Q: Which results are given for `Nc1ccccc1NC(=O)c1ccc(CNC(=O)OCc2cccnc2)cc1` [MS-275, N-(2-aminophenyl)-4-[N-(pyridin-3-yl-methoxycarbonyl)aminomethyl]benzamide]?
A: inhibition of cellular histone deacetylase activity [1]: inhibit cellular histone deacetylase activity; CC50 ([2]; 96 h): 509 nM; CC50 [2]: 1210 nM; mean 1D10 fluorescence normalized to the staining control [3, 10]: 88; mean 1D10 fluorescence of the cells [3, 10]: 104.11; mean 1D10 fluorescence normalized to the staining control [3, 11]: 393; mean 1D10 fluorescence of the cells [3, 11]: 463.23; mean 1D10 fluorescence normalized to the staining control [3, 12]: 3252; mean 1D10 fluorescence of the cells [3, 12]: 6438.03; mean 1D10 fluorescence normalized to the staining control [3, 13]: 4158; mean 1D10 fluorescence of the cells [3, 13]: 5446.76; Fold Increase in Histone Acetylation (Relative to Untreated), H3 Total [4, 14]: 1.3 fold; Fold Increase in Histone Acetylation (Relative to Untreated), H4 K5 [4, 14]: 2.7 fold; Fold Increase in Histone Acetylation (Relative to Untreated), H4 K8 [4, 14]: 1.6 fold; Fold Increase in Histone Acetylation (Relative to Untreated), H4 K12 [4, 14]: 4.4 fold; Fold Increase in Histone Acetylation (Relative to Untreated), H4 K16 [4, 14]: 3.7 fold; Fold Increase in Histone Acetylation (Relative to Untreated), H4 Total [4, 14]: 2.4 fold; Fold Increase in Histone Acetylation (Relative to Untreated), H3 Total [4, 15]: 2.3 fold; Fold Increase in Histone Acetylation (Relative to Untreated), H4 K5 [4, 15]: 8.9 fold; Fold Increase in Histone Acetylation (Relative to Untreated), H4 K8 [4, 15]: 1.9 fold; Fold Increase in Histone Acetylation (Relative to Untreated), H4 K12 [4, 15]: 15.8 fold; Fold Increase in Histone Acetylation (Relative to Untreated), H4 K16 [4, 15]: 9.1 fold; Fold Increase in Histone Acetylation (Relative to Untreated), H4 Total [4, 15]: 3.9 fold; Fold Increase in Histone Acetylation (Relative to Untreated), H3 Total [4, 16]: 1.5 fold; Fold Increase in Histone Acetylation (Relative to Untreated), H4 K5 [4, 16]: 2.6 fold; Fold Increase in Histone Acetylation (Relative to Untreated), H4 K8 [4, 16]: 4.4 fold; Fold Increase in Histone Acetylation (Relative to Untreated), H4 K12 [4, 16]: 5.1 fold; Fold Increase in Histone Acetylation (Relative to Untreated), H4 K16 [4, 16]: 3.1 fold; Fold Increase in Histone Acetylation (Relative to Untreated), H4 Total [4, 16]: 3.8 fold; Fold Increase in Histone Acetylation (Relative to Untreated), H3 Total [4, 17]: 3.1 fold; Fold Increase in Histone Acetylation (Relative to Untreated), H4 K5 [4, 17]: 4.5 fold; Fold Increase in Histone Acetylation (Relative to Untreated), H4 K8 [4, 17]: 4.8 fold; Fold Increase in Histone Acetylation (Relative to Untreated), H4 K12 [4, 17]: 10.3 fold; Fold Increase in Histone Acetylation (Relative to Untreated), H4 K16 [4, 17]: 4.7 fold; Fold Increase in Histone Acetylation (Relative to Untreated), H4 Total [4, 17]: 5.2 fold; growth in a variety of human tumor cell lines [5]: block growth; caspases 8 and 9 activation [6]: activated to a lesser extent than caspase 3; apoptosis (annexin V/propidium iodide flow cytometry) ([7]; 0.3 μM of MS-275, after 48 hours): apoptosis was detected after 48 hours; apoptosis (annexin V/propidium iodide flow cytometry) ([7]; 3.0 μM of MS-275, within 24 hours, one representative patient): apoptosis was detected within 24 hours; effect of Bcl-2 expression on MS-275-induced apoptosis ([7]; expression of the anti-apoptotic protein Bcl-2, other studies): inhibited by expression of the anti-apoptotic protein Bcl-2; CC50 at 4 h [8]: ≥ 21100 nM; CC50 at 96 h [8]: ≥ 4750 nM; caspase 3 activation [9]: induced activation of caspase 3
